Measurements as given in the supplement of paper PMC10307832.

Key:
Assay in all cases: relative viability (nuclei count vs DMSO), 5 days (fraction); higher = more cells survive
RU-SKI 43 + Bortezomib = compound: CC[C@@H](C)CNCC(=O)N1CCC2=C([C@@H]1COC3=CC=CC(=C3)C)C=CS2 [RU-SKI 43] + CC(C)C[C@H](NC(=O)[C@H](Cc1ccccc1)NC(=O)c1cnccn1)B(O)O [Bortezomib] (partner 0.002 µM)
Procedure, shortened: (§1)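 Dosing by pin tool came one day after lung cancer cell lines were seeded in 1536-well plates, using either one drug or a fixed anchor-drug dose plus five library-drug doses (not always all listed) in √10 steps. After 5 days, nuclei were counted on 4× images. Relative viability is treated-well nuclei count divided by vehicle-well nuclei count, and values are medians of duplicate plates.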

RU-SKI 43 + Palbociclib = compound: CC[C@@H](C)CNCC(=O)N1CCC2=C([C@@H]1COC3=CC=CC(=C3)C)C=CS2 [RU-SKI 43] + CC(=O)c1c(C)c2cnc(Nc3ccc(N4CCNCC4)cn3)nc2n(C2CCCC2)c1=O [Palbociclib] (partner 0.5 µM)
Procedure, shortened: as §1

Irinotecan + Linsitinib = compound: CCc1c2c(nc3ccc(OC(=O)N4CCC(N5CCCCC5)CC4)cc13)-c1cc3c(c(=O)n1C2)COC(=O)[C@]3(O)CC [Irinotecan] + C[C@]1(O)C[C@@H](c2nc(-c3ccc4ccc(-c5ccccc5)nc4c3)c3c(N)nccn32)C1 [Linsitinib] (partner 1 µM)
Procedure, shortened: as §1

MK-8033 + OSI-027 = compound: Cn1cc(-c2cnc3ccc4ccc(CS(=O)(=O)NCc5ccccn5)cc4c(=O)c3c2)cn1 [MK-8033] + COc1cccc2cc(-c3nc([C@H]4CC[C@H](C(=O)O)CC4)n4ncnc(N)c34)[nH]c12 [OSI-027] (partner 0.5 µM)
Procedure, shortened: as §1

Cell Line | relative viability (RU-SKI 43 + Bortezomib; first compound 0.1 µM) | relative viability (RU-SKI 43 + Bortezomib; first compound 0.3162 µM) | relative viability (RU-SKI 43 + Bortezomib; first compound 1 µM) | relative viability (RU-SKI 43 + Bortezomib; first compound 3.162 µM) | relative viability (RU-SKI 43 + Bortezomib; first compound 10 µM) | relative viability (RU-SKI 43 + Palbociclib; first compound 0.1 µM) | relative viability (RU-SKI 43 + Palbociclib; first compound 0.3162 µM) | relative viability (RU-SKI 43 + Palbociclib; first compound 1 µM) | relative viability (RU-SKI 43 + Palbociclib; first compound 3.162 µM) | relative viability (RU-SKI 43 + Palbociclib; first compound 10 µM) | relative viability (Irinotecan + Linsitinib; first compound 0.6325 µM) | relative viability (Irinotecan + Linsitinib; first compound 2 µM) | relative viability (Irinotecan + Linsitinib; first compound 6.325 µM) | relative viability (Irinotecan + Linsitinib; first compound 20 µM) | relative viability (MK-8033 + OSI-027; first compound 0.02 µM) | relative viability (MK-8033 + OSI-027; first compound 0.06325 µM) | relative viability (MK-8033 + OSI-027; first compound 0.2 µM) | relative viability (MK-8033 + OSI-027; first compound 0.6325 µM) | relative viability (MK-8033 + OSI-027; first compound 2 µM)
NCI-H1666 | 0.704 | 0.84 | 0.702 | 0.719 | 0.534 | 0.66 | 0.63 | 0.707 | 0.609 | 0.64 | 0.71 | 0.414 | 0.403 | 0.384 | 0.886 | 0.754 | 0.771 | 0.94 | 0.803
NCI-H1734 | 0.971 | 1.08 | 0.917 | 0.824 | 0.789 | 0.351 | 0.323 | 0.358 | 0.325 | 0.298 | 0.797 | 0.355 | 0.155 | 0.195 | 0.59 | 0.508 | 0.612 | 0.632 | 0.547
NCI-H1755 | 0.978 | 1.14 | 1.04 | 0.941 | 0.986 | 0.478 | 0.458 | 0.44 | 0.478 | 0.466 | 0.927 | 0.396 | 0.303 | 0.366 | 0.625 | 0.676 | 0.681 | 0.717 | 0.822
NCI-H1792 | 0.961 | 1.29 | 1.31 | 1.03 | 0.941 | 0.692 | 0.764 | 0.685 | 0.698 | 0.662 | 0.613 | 0.528 | 0.21 | 0.107 | 0.655 | 0.611 | 0.683 | 0.628 | 0.512
NCI-H1915 | 1.05 | 1.39 | 1.1 | 0.959 | 1.02 | 0.51 | 0.543 | 0.559 | 0.541 | 0.525 | 0.374 | 0.238 | 0.187 | 0.171 | 0.649 | 0.559 | 0.62 | 0.65 | 0.596
NCI-H1975 | 0.441 | 0.421 | 0.464 | 0.4 | 0.34 | 0.642 | 0.626 | 0.669 | 0.541 | 0.352 | 1.1 | 0.803 | 0.326 | 0.204 | 0.692 | 0.645 | 0.563 | – | 0.571
NCI-H1993 | 1.04 | 1.01 | 1.15 | 1.1 | 0.756 | 0.611 | 0.727 | 0.697 | 0.748 | 0.613 | 0.688 | 0.608 | 0.643 | 0.693 | 0.519 | 0.583 | 0.561 | 0.598 | 0.527
NCI-H2009 | 1.05 | 1.02 | 1.01 | 1.12 | 0.968 | 0.181 | 0.214 | 0.219 | 0.229 | 0.194 | 0.876 | 0.493 | 0.262 | 0.221 | 0.628 | 0.612 | 0.597 | 0.617 | 0.626
NCI-H2023 | 0.88 | 1.21 | 1.04 | 1.15 | 0.932 | 0.383 | 0.385 | 0.444 | 0.451 | 0.311 | 0.714 | 0.503 | 0.198 | 0.0873 | 0.432 | 0.288 | 0.335 | 0.319 | 0.223
NCI-H2085 | 1.03 | 1.08 | 1.1 | 0.995 | 0.988 | 0.514 | 0.444 | 0.467 | 0.48 | 0.461 | 0.584 | 0.672 | 0.381 | 0.497 | 0.762 | 0.728 | 0.653 | 0.643 | 0.7
NCI-H2087 | 0.759 | 0.942 | 0.996 | 0.735 | 0.925 | 0.253 | 0.215 | 0.288 | 0.238 | 0.19 | 0.453 | 0.313 | 0.252 | 0.298 | 0.546 | 0.519 | 0.443 | 0.642 | 0.617
NCI-H2126 | 1.15 | 1.25 | 1.23 | 1.12 | 1.08 | 0.355 | 0.37 | 0.38 | 0.355 | 0.353 | – | 0.414 | 0.355 | 0.335 | 0.752 | 0.666 | 0.764 | 0.595 | 0.808
NCI-H2228 | 1.19 | 1.26 | 0.937 | 1.98 | 0.941 | 0.735 | 1.05 | 0.892 | 0.535 | 0.737 | 0.706 | 0.714 | 0.39 | 0.477 | 0.692 | 0.562 | 0.576 | 0.559 | 0.552
NCI-H2347 | 0.951 | 1.16 | 1.01 | 0.976 | 0.994 | 0.434 | 0.329 | 0.441 | 0.403 | 0.394 | 0.761 | 0.739 | 0.498 | 0.5 | 0.395 | 0.399 | 0.406 | 0.454 | 0.422
NCI-H2405 | 0.957 | 1.03 | 1.02 | 0.936 | 0.773 | 0.504 | 0.603 | 0.551 | 0.576 | 0.503 | – | 0.763 | 0.294 | 0.18 | 0.595 | 0.538 | 0.594 | 0.604 | 0.604
NCI-H3122 | 1.06 | 0.924 | 0.993 | 1.02 | 0.978 | 0.193 | 0.166 | 0.185 | 0.182 | 0.166 | 0.902 | 0.293 | 0.24 | 0.22 | 1.05 | 0.957 | 0.926 | 0.991 | 0.916
